The assay relates to A549 cells. The assay is described as follows: confocal microscopy of ceramide and caspase 8. Type of assay: cell-based, human. As for the experimental part: Confocal microscopy. […] After treatment, the cells were fixed 10 minutes at room temperature with 4% PFA, washed twice with PBS, permeabilized 2 minutes at room temperature with 0.1% triton in PBS and blocked for 30 minutes with sterile 2% BSA in PBS. The staining was performed at room temperature for 2 hours (h), with mouse monoclonal anti-human ceramide (Alexis) and rabbit anti-human caspase 8 (BD Pharmingen) antibodies followed by secondary goat anti-mouse ALEXA FLUOR568™ and goat anti-rabbit ALEXA FLUOR488™ antibodies (Invitrogen). The blue DNA binding dye TOPRO-3™ (Molecular Probes) was added together with the secondary antibodies. The cells were washed three times with PBS between the different incubation steps and the incubation with the secondary fluorescently labeled antibodies was performed in the dark. All antibodies were diluted in PBS. Confocal images were recorded on a Nikon ECLIPSE C1™ confocal microscope.

Data on one compound can be found in patent US9045401B2, “Methods for treating or ameliorating a melanoma and killing melanoma cells” (THE REGENTS OF THE UNIVERSITY OF CALIFORNIA, priority 2007, dated 2015).

`C=CC/C=C/N(C)C(=O)CCCCCCCC/C=C/[C@H](CSSC[C@@H](/C=C/CCCCCCCCC(=O)N(C)/C=C/CC=C)NC(C)=O)NC(C)=O` [somocystinamide A, Somocystinamide A]: the “colocalization of ceramide and caspase 8” value (0.10 μM, 30 minutes or six hours) is “induced colocalization of ceramide and caspase 8”. The cell surface ceramide entry (300 nM, 30 minutes after treatment) is “accumulation, and aggregation, of cell surface ceramide”.
